Test results published in patent US9861625B2, “Methods and compositions for treating cancer through inhibition of PI3K” (Duke University, priority 2014, dated 2018).

Tests used:
Assay type in all cases: cell-based
[1] = test system: BL2; experiment: MTT cell viability assay; settings: BL2, Burkitt Lymphoma, RPMI 10% FBS
Description: (§1) A total of 60 cell lines representative of different cancer types were obtained from the ATCC and grown and maintained in accordance with the provided guidelines. The cell lines represented the following distinct histologies: mantle cell lymphoma (5 lines: JVM13, Rec1, Mino, JVM2, Jeko); germinal center B-cell derived (“GCB”) DLBCL (19 lines: Farage, BJAB, Ly1, Ly2, Ly7, Ly8, Ly19, HBL2, HT, Karpas422, Pfeiffer, RCK8, RL, Sci-1, Ski, SUDHL4, SUDHL7, Toledo, WSU-NHL); primary mediastinal B-cell lymphoma (“PMBL”) (3 lines: K1106, MEDB1, U2940); Burkitt lymphoma (11 lines: Daudi, CA46, EB1, EB2, EB3, Jijoye, Raji, Ramos, Namwala, BL2, BL41); Hodgkin lymphoma (3 lines: RMPI6666, L1236, L428); activated B-cell derived (“ABC”) DLBCL (6 lines: Ly3, HBL1, TMD8, Ly10, Riva, U2932); multiple myeloma (6 lines: U266, SKMM1, RPMI8226, KMS12, IM9, H929); acute myelogenous leukemia (“AML”) (2 lines: U937, KG1); acute lymphoblastic leukemia (“ALL”) (2 lines: Reh, SR); and T-cell lymphoma (3 lines: Molt4, RPMI8402, Jurkat). The cell lines were tested within six months after resuscitation.
(§2) The 3-(4,5-dimethylthiazol-2-yl)-2,5-diphenyltetrazolium bromide (MTT) cell viability assay was used to determine cell viability in response to drug treatment. Five replicates per concentration tested were carried out in serial dilutions with a total of ten concentrations with a 50% reduction in drug concentration per dilution for each plate. A total of 15 μl of MTT reagent was added to each drug-treated well and incubated for three hours in 37° C. Detergent was added to each drug-treated well and incubated overnight at room temperature without exposure to light. Absorbance was measured at 570 nm using a plate reader from Tecan Group. The IC50 concentration was determined using the publicly available ED50 plus v1.0 software program.

[2] = test system: BL41; experiment: MTT cell viability assay; settings: Homo sapiens, BL-41; BL41, Burkitt Lymphoma, RPMI 10% FBS
Description: as §1, §2

[3] = test system: HBL2; experiment: MTT cell viability assay; settings: HBL2, GCB DLBCL, RPMI 10% FBS
Description: as §1, §2

[4] = test system: HT; experiment: MTT cell viability assay; settings: Homo sapiens, GCB DLBCL, RPMI 10% FBS
Description: as §1, §2

[5] = test system: JVM13; experiment: MTT cell viability assay; settings: JVM13, MantleCellLymphoma, RPMI 10% FBS
Description: as §1, §2

[6] = test system: Jurkat; experiment: MTT cell viability assay; settings: Homo sapiens, T-cell, RPMI 10% FBS
Description: as §1, §2

[7] = test system: KMS12; experiment: MTT cell viability assay; settings: KMS12, Multiple Myeloma, RPMI 10% FBS
Description: as §1, §2

[8] = test system: L428; experiment: MTT cell viability assay; settings: Homo sapiens, L-428; L428, Hodgkin Lymphoma, RPMI 10% FBS
Description: as §1, §2

[9] = test system: LY10; experiment: MTT cell viability assay; settings: LY10, ABC DLBCL, OCI
Description: as §1, §2

[10] = test system: LY1; experiment: MTT cell viability assay; settings: LY1, GCB DLBCL, OCI
Description: as §1, §2

[11] = test system: LY2; experiment: MTT cell viability assay; settings: LY2, GCB DLBCL, OCI
Description: as §1, §2

[12] = test system: LY8; experiment: MTT cell viability assay; settings: LY8, GCB DLBCL, OCI
Description: as §1, §2

[13] = test system: Namwala; experiment: MTT cell viability assay; settings: Burkitt Lymphoma, RPMI 10% FBS
Description: as §1, §2

[14] = test system: RPMI8402; experiment: MTT cell viability assay; settings: Homo sapiens, RPMI 8402; RPMI8402, T-cell, RPMI 10% FBS
Description: as §1, §2

[15] = test system: Ramos; experiment: MTT cell viability assay; settings: Homo sapiens, Burkitt Lymphoma, RPMI 10% FBS
Description: as §1, §2

[16] = test system: Riva; experiment: MTT cell viability assay; settings: ABC DLBCL, RPMI 10% FBS
Description: as §1, §2

[17] = test system: SKMM1; experiment: MTT cell viability assay; settings: SKMM1, Multiple Myeloma, RPMI 10% FBS
Description: as §1, §2

[18] = test system: SR; experiment: MTT cell viability assay; settings: Homo sapiens, ALL, RPMI 10% FBS
Description: as §1, §2

[19] = test system: Ski; experiment: MTT cell viability assay; settings: GCB DLBCL, RPMI 10% FBS
Description: as §1, §2

[20] = test system: Toledo; experiment: MTT cell viability assay; settings: Homo sapiens, GCB DLBCL, RPMI 10% FBS
Description: as §1, §2

[21] = test system: U266; experiment: MTT cell viability assay; settings: Homo sapiens, U-266; U266, Multiple Myeloma, RPMI 15% FBS
Description: as §1, §2

[22] = test system: U2932; experiment: MTT cell viability assay; settings: Homo sapiens; U2932, ABC DLBCL, RPMI 10% FBS
Description: as §1, §2

[23] = test system: U2940; experiment: MTT cell viability assay; settings: Homo sapiens, U-2940; U2940, PMBL, RPMI 10% FBS
Description: as §1, §2

[24] = test system: WSUNHL; experiment: MTT cell viability assay; settings: Homo sapiens, WSU-NHL, GCB DLBCL, RPMI 10% FBS
Description: as §1, §2

[25] = test system: Ly8 cell lines with stable knockdown of PAK1 expression; experiment: MTT assay in Ly8 cells with shRNA knockdown of PAK1; settings: on average, P<0.01
Procedure: Lentiviral pGIPZ constructs containing either a scrambled sequence (non-silencing; cat. no. RHS4346; Open Biosystems) as control, or a hairpin sequence targeting the PAK1 gene (cat. no. RHS4430; Open Biosystems) were mixed with Lentiviral packaging mix (cat. no. TLP4691; Open Biosystems) and transfected into TLA-HEK-293T cells using Arrest-in as a transfection reagent. Virus was harvested 72 hours post-transfection and frozen at −80° C. until use. DLBCL cell lines were infected with virus in the presence of 8 μg/μl of polybrene, using 1×10^5 cells per well in a 6-well plate. The plates containing cells and virus were spun at 700 g for 90 minutes at room temperature. […] Successful knockdown of PAK1 was confirmed by Western blot and quantitative PCR. […]

[26] = test system: Ly8 cells and normal human B cells (tonsil lymphocytes); experiment: Toxicity in Ly8 cells compared to normal B cells (alamar blue); settings: alone and in combination; 36 hours
Procedure: BEZ235 was tested in combination with the PAK1 inhibitor IPA-3 using Calcusyn software by applying the Chou-Talalay method. BJAB, HBL1, HBL2, HT, Ly8, and Riva cells were tested, as were normal tonsil lymphocytes. Ly8 and tonsillar lymphocytes were cultured in 96-well plates (approximately 500,000 cells/ml) for 36 hours in Iscove's modified Dulbecco's medium (IMDM) with 20% human AB serum. Viability was assessed with alamar blue dye and normalized to the lowest concentration of BEZ235 in each group.
Finally, BEZ235 and IPA-3 were administered separately and concurrently to normal human B cells to ascertain a therapeutic window between normal and malignant cells.

IC50 [6] [nM] | IC50 [15] [nM] | IC50 [17] [nM] | SMILES | IC50 [1] [nM] | IC50 [2] [nM] | IC50 [3] [nM] | IC50 [4] [nM] | IC50 [5] [nM] | IC50 [7] [nM] | IC50 [8] [nM] | IC50 [9] [nM] | IC50 [10] [nM] | IC50 [11] [nM] | IC50 [12] [nM] | IC50 [13] [nM] | IC50 [14] [nM] | IC50 [16] [nM] | IC50 [18] [nM] | IC50 [19] [nM] | IC50 [20] [nM] | other results
33.2 | 51 | 48.4 | Cn1c(=O)n(-c2ccc(C(C)(C)C#N)cc2)c2c3cc(-c4cnc5ccccc5c4)ccc3ncc21 [BEZ235] | 49.9 | 11.6 | 1560 | 2610 | 869 | 23.1 | 14.6 | 9390 | 16.4 | 29.7 | 694 | 32.1 | 220 | 517 | 64.2 | 25 | 20.4 | IC50 [21]: 167 nM; IC50 [22]: 96.1 nM; IC50 [23]: 35.4 nM; IC50 [24]: 16.2 nM; sensitivity of the three shRNA-modified cell lines versus unmodified Ly8 cells [25]: 3.5 fold; toxicity in Ly8 cells as compared to normal B cells [26]: selective toxicity
1190 | 1040 | 826 | Nc1cc(C(F)(F)F)c(-c2cc(N3CCOCC3)nc(N3CCOCC3)n2)cn1 [BKM120] | 722 | 5030 | 1420 | 435 | 933 | 954 | 1870 | 1520 | 382 | 2220 | 1370 | 714 | 1220 | 476 | 807 | 236 | 2010 | IC50 [21]: 5600 nM; IC50 [22]: 5360 nM; IC50 [23]: 4450 nM; IC50 [24]: 1260 nM
